The species named for test [1] is Rattus norvegicus. The experiment in a line: Inhibition of collagen-induced platelet aggregation in male SD rats; Inhibition >= 10% but < aspirin (34-96%). It counts as functional.
The species named for test [2] is Rattus norvegicus. The experiment in a line: Hypolipidemic activity was expressed as percent decrease in serum cholesterol in Sprague-Dawley rats. It counts as functional. Details: concentration or dose not given beside the values.
The species entered for test [3] is Rattus norvegicus. The experiment in a line: Hypolipidemic activity was expressed as percent decrease in triglycerides in Sprague-Dawley rats. Details: concentration or dose not given beside the values. It counts as functional.
Test [4] is filed under the species Rattus norvegicus. The experiment in a line: Ability to inhibit collagen -induced platelet aggregation in male SD rats; <10. The class given is functional. Also noted: concentration or dose not given beside the values.
The species entered for test [5] is Rattus norvegicus. Nature of the test: Hypolipidemic activity was expressed as percent decrease in triglycerides. The class given is functional. Also noted: concentration or dose not given beside the values.
The species entered for test [6] is Rattus norvegicus. Nature of the test: Hypolipidemic activity was expressed as percent decrease in serum cholesterol. The class given is functional. Also noted: concentration or dose not given beside the values.
For test [7], the species on record is Rattus norvegicus. The experiment in a line: The ability to inhibit platelet aggregation was tested; Inhibition >= 10% but < aspirin (34-96%). The class given is functional.
The species named for test [8] is Rattus norvegicus. The experiment in a line: Ability to inhibit collagen -induced platelet aggregation in male SD rats; No evaluation. The class given is functional, organism-based.
For test [9], the species on record is Rattus norvegicus. The experiment in a line: Hypolipidemic activity was expressed as percent decrease in serum cholesterol in Sprague-Dawley rats; No evaluation. The class given is functional, organism-based.
Test [10] is filed under the species Rattus norvegicus. Nature of the test: Hypolipidemic activity was expressed as percent decrease in triglycerides; No evaluation. It counts as functional, organism-based.
The species named for test [11] is Rattus norvegicus. The experiment in a line: The ability to inhibit platelet aggregation was tested; <10. It counts as functional.
The species named for test [12] is Rattus norvegicus. Nature of the test: Ability to inhibit collagen -induced platelet aggregation in male SD rats; Inhibition >= aspirin (34-96%). The class given is functional, organism-based.
The species named for test [13] is Rattus norvegicus. The experiment in a line: Ability to inhibit collagen -induced platelet aggregation in male SD rats; NE means no evaluation. It counts as functional, organism-based.
The species entered for test [14] is Rattus norvegicus. Nature of the test: Hypolipidemic activity was expressed as percent decrease in serum cholesterol; NE means no evaluation. It counts as functional, organism-based.
The species entered for test [15] is Rattus norvegicus. Nature of the test: Hypolipidemic activity was expressed as percent decrease in triglycerides; NE means no evaluation. It counts as functional, organism-based.

Activity calls are given as the source filed them. No cut-off for these calls is given here. Bounds are passed on as bounds.

With `CC(C)c1nc(CC(=O)O)c(-c2ccsc2)o1`, in [1], the Inhibition (as a rule, the change of the read-out against control, counted positive when it falls) was “>=10%”. For the same compound, the values for the Reduction in test [2] and in test [3] were 20% and 16%, respectively.
In turn, `O=C(Cc1nc(-c2ccc(Cl)cc2)oc1-c1ccco1)OCc1cccnc1` had an Inhibition in [4] of less than 10%. In addition, the Reduction in test [2] stood at 18%; in test [3], 42%.
Take `CCOC(=O)Cc1nc(-c2ccc(OC)cc2)oc1-c1ccco1`: the Inhibition entry in [1] is listed as “>=10%”. In addition, the Reduction is 0% in test [2] and 4% in [3].
Turning to `CCOC(=O)Cc1nc(-c2cccc(C(F)(F)F)c2)oc1-c1ccco1`, in test [4], the Inhibition is less than 10%. Besides, the Reduction in test [2] is on record as 15%; in [3], 0%.
Take `O=C(O)Cc1nc(-c2ccc(F)cc2)oc1-c1ccco1`: in test [1], the Inhibition entry is “>=10%”. The figures for the Reduction in [5] and in test [6] were 10% and 20%, respectively.
As for `O=C(O)Cc1nc(-c2ccc(Cl)cc2)oc1-c1ccco1`, in test [1], the Inhibition entry is on record as “>=10%”. Also, the Reduction in test [2] came to 20%; in [3], 35%.
As for `CCOC(=O)C(C)(C)Oc1ccc(Cl)cc1` [CLOFIBRATE], the Inhibition in test [4] was less than 10%. For the same compound, the figures for the Reduction in test [5] and in [6] were 30% and 15%, respectively.
Consider `O=C(O)Cc1nc(-c2ccc(F)cc2)oc1-c1ccoc1`, for which the Inhibition result in test [1] is recorded as “>=10%”. The Reduction in test [2] was found to be 23%; in test [3], 38%.
In the case of `CCOC(=O)C(C)c1nc(-c2ccc(Cl)cc2)oc1-c1ccoc1` (configuration not stated), in [7], the Inhibition entry is reported as “>=10%”. The Reduction in [2] is on record as 22%; in test [3], 45%.
In [4], `CCCCCCCCCCCCOC(=O)Cc1nc(-c2ccc(Cl)cc2)oc1-c1ccco1` displayed an Inhibition of less than 10%. For the same compound, the Reduction in test [5] came to 30%; in test [6] it was 20%.
For `CCOC(=O)Cc1nc(-c2ccc(Cl)cc2)oc1-c1ccc(C(C)=O)o1`, the results for the Reduction in test [2] and in [3] were 0% and -14%, respectively.
`CCOC(=O)Cc1nc(-c2ccc(Cl)cc2)oc1-c1ccc(S(=O)(=O)O)o1`: the Reduction in test [2] is reported as -5%; in test [3], 23%.
For the compound `CCOC(=O)Cc1nc(C2CCCCC2)oc1-c1ccco1`, the inhibition entry in test [8] was “No effect”. Moreover, the Reduction result in test [9] and in [10] was “No effect” throughout.
`CCOC(=O)Cc1nc(-c2ccc(C)cc2)oc1-c1ccco1`: the Inhibition result in test [1] is on record as “>=10%”. The Reduction in test [2] is recorded as 9%; in [3], -6%.
Take `O=C(O)Cc1nc(-c2ccc(Cl)cc2)oc1-c1ccoc1`: the values for the Reduction in test [2] and in [3] were 23% and 42%, respectively.
On to `CCOC(=O)Cc1nc(-c2ccc(Cl)cc2)oc1-c1ccoc1`, for which the Inhibition result in [1] is recorded as “>=10%”. The Reduction is recorded as 25% in test [2] and 42% in test [3].
For the compound `CCOC(=O)Cc1nc(-c2ccc(Cl)c(Cl)c2)oc1-c1ccoc1`, in test [4], the Inhibition is reported as less than 10%. For the same compound, the Reduction in test [2] was 19%; in test [3], 49%.
In the case of `CCOC(=O)Cc1nc(-c2ccc(Cl)cc2)sc1-c1ccsc1`, the inhibition entry in test [8] was “No effect”. The Reduction in [2] is -8%; in [3], 21%.
Turning to `CCCCOC(=O)Cc1nc(-c2ccc(Cl)cc2)oc1-c1ccco1`, the Inhibition in [4] is given as less than 10%. Further, the Reduction in test [2] was found to be 20%; in test [3], 27%.
As for `CCOC(=O)Cc1nc(C)oc1-c1ccco1`, in test [8], the inhibition entry is “No effect”. The Reduction entry in test [9] and in test [10] was “No effect” in each case.
`CCOC(=O)Cc1nc(-c2ccc(Cl)cc2)sc1-c1ccco1`: the Reduction in test [2] is -15%; in test [3], 17%.
For the compound `CCOC(=O)Cc1nc(-c2ccc(Cl)cc2)oc1-c1ccco1`, the Inhibition entry in [1] is reported as “>=10%”. Further, the Reduction in test [2] was determined as 23%; in test [3], 35%.
Turning to `CCOC(=O)Cc1nc(-c2ccc(Cl)cc2)oc1-c1ccc(Br)o1`, the Reduction worked out at 10% in [2] and 2% in [3].
As for `CCOC(=O)Cc1nc(-c2ccc(Cl)cc2)oc1-c1ccc(C=O)o1`, the Reduction is -5% in test [5] and 9% in test [6].
Consider `CCOC(=O)Cc1nc(-c2ccccc2)oc1-c1ccco1`, for which the Inhibition result in test [1] was “>=10%”. The Reduction in test [2] amounted to 14%; in test [3], 23%.
The compound `CCOC(=O)C(C)(C)c1nc(-c2ccc(Cl)cc2)oc1-c1ccco1` had an Inhibition in test [11] of less than 10%. Further, the Reduction in [2] was -4%; in test [3] it was -25%.
For `CCOC(=O)Cc1nc(C(C)C)oc1-c1ccsc1`, the Inhibition entry in test [1] is reported as “>=10%”. Also, the Reduction amounted to 15% in test [2] and 28% in [3].
The like results for `Cc1ccc(-c2nc(CC(=O)O)c(-c3ccco3)o2)cc1` were, in that order, “>=10%”, 9% and 29%.
As to `O=C(O)Cc1nc(-c2ccccc2)oc1-c1ccco1`, in test [1], the Inhibition result is “>=10%”. The Reduction in [2] is listed as 14%; in test [3], 29%.
`CCOC(=O)C(CC)c1nc(-c2ccc(Cl)cc2)oc1-c1ccco1` (configuration not stated) gave an Inhibition in test [11] of less than 10%. The Reduction in test [2] is 0%; in [3] it was -10%.
In turn, `CCOC(=O)Cc1nc(C(C)C)oc1-c1ccco1` registered an Inhibition in test [4] of less than 10%. The values for the Reduction in [2] and in test [3] were 12% and 21%, respectively.
Regarding `CC(=O)Oc1ccccc1C(=O)O`, in test [12], the inhibition result is “Active”.
Consider `CCOC(=O)Cc1nc(-c2ccc(F)cc2)oc1-c1ccoc1`, for which the Inhibition result in [1] is listed as “>=10%”. Moreover, the values for the Reduction in test [2] and in [3] were 30% and 28%, respectively.
`CCOC(=O)Cc1nc(-c2ccccc2)oc1C1CCCO1` (configuration not stated): the Inhibition in [4] is recorded as less than 10%. Besides, the Reduction in test [2] and in [3] was 8% in each case.
With `O=C(O)Cc1nc(-c2cccc(C(F)(F)F)c2)oc1-c1ccco1`, the Inhibition result in test [1] is given as “>=10%”. For the same compound, the Reduction in test [2] is listed as 8%; in test [3], 50%.
For `CC(C)(C(=O)O)c1nc(-c2ccc(Cl)cc2)oc1-c1ccco1`, in test [11], the Inhibition is less than 10%. Also, the Reduction in test [2] amounted to 16%; in [3] it was 54%.
With `CCCCCCCc1nc(CC(=O)OCC)c(-c2ccsc2)o1`, the inhibition entry in test [13] is “No effect”. The Reduction entry in test [14] and in test [15] was “No effect” in each case.
With `CCCCCCCc1nc(CC(=O)O)c(-c2ccsc2)o1`, in test [1], the Inhibition result is recorded as “>=10%”. Moreover, the Reduction came out at 27% in test [5] and 11% in test [6].
Turning to `Cc1nc(CC(=O)O)c(-c2ccco2)o1`, the Inhibition in [4] is recorded as less than 10%. In addition, the Reduction was 10% in test [2] and -20% in test [3].
Turning to `CCOC(=O)Cc1nc(-c2ccc(F)cc2)oc1-c1ccco1`, the Inhibition result in test [1] was “>=10%”. Moreover, the Reduction was 20% in [2] and 24% in test [3].
In test [4], `CCCCCCCOC(=O)Cc1nc(-c2ccc(Cl)cc2)oc1-c1ccco1` yielded an Inhibition of less than 10%. The Reduction in test [5] is recorded as 42%; in [6] it was 19%.
Turning to `CCCCc1nc(CC(=O)OCC)c(-c2ccco2)o1`, the Reduction in test [2] is reported as 2%; in test [3], 16%.
For the compound `O=C(O)Cc1nc(-c2ccc(Cl)c(Cl)c2)oc1-c1ccoc1`, in test [1], the Inhibition result is on record as “>=10%”. Also, the figures for the Reduction in test [2] and in test [3] were 19% and 60%, respectively.
The like results for `O=C(O)Cc1nc(C2CCCCC2)oc1-c1ccco1` were, in that order, “>=10%”, 13% and 18%.
Regarding `CCOC(=O)C(C)c1nc(-c2ccc(Cl)cc2)oc1-c1ccco1` (configuration not stated), the Inhibition entry in test [7] was “>=10%”. The results for the Reduction in test [2] and in [3] were 20% and 31%, respectively.
The like results for `CCOC(=O)Cc1nc(-c2ccc(Cl)cc2)oc1-c1ccsc1` were, in that order, “>=10%”, 23% and 39%.
Turning to `CC(C)c1nc(CC(=O)O)c(-c2ccco2)o1`, in [4], the Inhibition is less than 10%. The Reduction in [2] amounted to 5%; in test [3], 9%.
In the case of `CCOC(=O)Cc1nc(-c2ccc(Cl)cc2)oc1N1CCCC1`, the Reduction in [2] is reported as -2%; in test [3], -20%.
On to `CCOC(=O)Cc1nc(-c2ccccc2)oc1-c1ccoc1`, for which the Inhibition entry in test [1] was “>=10%”. The Reduction in test [2] turned out to be 17%; in [3] it was 46%.
On to `CC(C(=O)O)c1nc(-c2ccc(Cl)cc2)oc1-c1ccco1` (configuration not stated), for which the Reduction in test [2] is listed as 16%; in [3] it was 41%.
As to `COc1ccc(-c2nc(CC(=O)O)c(-c3ccco3)o2)cc1`, the Inhibition result in test [1] was “>=10%”. The results for the Reduction in [2] and in [3] were 5% and -1%, respectively.

These data come from ChEMBL document CHEMBL1124271, “Synthesis of ethyl 2-(4-chlorophenyl)-5-(2-furyl)-4-oxazoleacetate, a hypolipidemic agent, and related compounds” (1988).
